{"source": "ChEMBL document CHEMBL1201862", "about": "“PubChem BioAssay data set” (2004)", "key": {"[1]": {"assay": "inhibitors of firefly luciferase expression or activity, dose response, H4 neuroglioma cells, luminescence (AID 1990)", "assay_type": "functional, cell-based"}, "HEK293 [2]": {"tested_on": "HEK293", "assay": "NOD1 signaling inhibitors, primary screen, cell-based, luminescence, uHTS (AID 1578)", "assay_type": "functional", "conditions": "Homo sapiens"}, "HEK293 [3]": {"tested_on": "HEK293", "assay": "cells", "assay_type": "functional, cell-based", "conditions": "Homo sapiens"}, "[4]": {"assay": "Luminescence Cell-Based Dose Response HTS to Identify Inhibitors of 5'UTR Stem-Loop Driven Prion Protein mRNA Translation in H4 Neuroglioblastoma Cells. [Related pubchem assays: 1827 (Project Summary), 1813 (Primary HTS)]", "assay_type": "functional"}, "[5]": {"assay": "inhibitors of SNCA 5'UTR-driven reporter translation, confirmation, H4 neuroglioma cells, luminescence (AID 1988)", "assay_type": "functional, cell-based"}, "HEK293 [6]": {"tested_on": "HEK293", "assay": "cells", "assay_type": "functional, cell-based", "conditions": "Homo sapiens", "remark": "listed apart in the source"}, "HEK293 [7]": {"tested_on": "HEK293", "assay": "NOD2 signaling inhibitors in MDP-stimulated cells, cell-based, uHTS, luminescence (AID 2001)", "assay_type": "functional", "conditions": "Homo sapiens"}, "[8]": {"assay": "inhibitors of intracellular T. cruzi replication, confirmation, NIH3T3 host cells, beta-gal luminescence (AID 2044);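 further: luminescent beta-galactosidase reporter signal from transgenic T. cruzi replicating inside host cells; inhibitors lower the luminescence signal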", "assay_type": "functional, cell-based"}, "[9]": {"assay": "growth suppression of PTEN-null colon cells, dose response, cell-based, HCT116 PTEN knockout (AID 1047);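 further: HCT116 colon tumor cells with PTEN knocked out; cells exposed to compound for 60 hours before readout; potency for loss of cell viability measured by luminescence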", "assay_type": "functional"}, "[10]": {"assay": "cytotoxicity toward NIH3T3 fibroblasts, dose response, counter-screen, cell-based, ATP luminescence, mouse fibroblasts (AID 2010);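 further: cells exposed to compound for about 90 hours before reading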", "assay_type": "functional"}, "[11]": {"assay": "growth suppression of beta-catenin-knockout colon cells, dose response, cell-based, HCT116, human colon tumor (AID 1045);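 further: HCT116 colon tumor cells with beta catenin knocked out; cells exposed to compound for 60 hours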", "assay_type": "functional"}, "[12]": {"assay": "Luminescence Cell-Based Dose Retest to Confirm Inhibitors of Cancer Stem Cells. [Related pubchem assays (depositor defined):AID2717, AID2721]", "assay_type": "functional", "conditions": "Homo sapiens"}, "INS1": {"tested_on": "INS1", "assay": "beta cell apoptosis inhibitors, cytokine rescue, dose response, luminescence, retest (AID 449756);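 further: cell death triggered by IL-1 beta plus TNF-alpha plus IFN-gamma mixture; protective hits raise ATP signal compared with cytokine alone wells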", "assay_type": "functional, cell-based", "conditions": "Rattus norvegicus"}, "[13]": {"assay": "Shn3 3'UTR reporter inhibitors, dose response, cell-based, Clone20 osteoblasts, firefly luciferase, cherry-picked (AID 624132)", "assay_type": "functional"}, "[14]": {"assay": "HepG2 cell cytotoxicity, dose response, cytotoxicity control for Shn3 inhibitor project, CellTiter-Glo, cherry-picked (AID 624134)", "assay_type": "functional, cell-based"}, "[15]": {"assay": "control 3'UTR Renilla luciferase suppression, dose response, counter-screen for Shn3 inhibitor project, cell-based, Clone20-Shn3RL, cherry-picked (AID 624133)", "assay_type": "functional"}, "[16]": {"target": "Photoreceptor-specific nuclear receptor (Homo sapiens, UniProt Q9Y5X4)", "assay_type": "functional, cell-based"}, "[17]": {"assay": "inhibitors of HIV Env-driven cell fusion, dose response, cherry-pick (AID 652057)", "assay_type": "functional, cell-based"}, "[18]": {"assay": "CEM21 lymphoblast cell cytotoxicity, dose response, cytotoxicity control for viral fusion inhibitor project, CellTiter-Glo luminescence, cherry-picked (AID 652042);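 further: potency for signal decrease meaning cytotoxicity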", "assay_type": "functional, cell-based"}, "[19]": {"assay": "off-target signal loss in HeLa-CEM21 co-culture – HeLa F-luc CTL cells, cherry-picked, counter-screen for HIV-1 Env fusion inhibitor project, dose response (AID 652040);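 further: potency for signal decrease marking cytotoxic or nonspecific inhibition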", "assay_type": "functional, cell-based"}, "[20]": {"assay": "HEK293T cytotoxicity, dose response, cytotoxicity control for miR-122 modulator project, cell-based, inhibitor set, cherry-pick, set 2 (AID 720697)", "assay_type": "functional"}, "[21]": {"assay": "HEK293T cytotoxicity, dose response, cytotoxicity control for miR-122 modulator project, cell-based, activator set, cherry-pick (AID 720690);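 further: HEK293T human cells scored for general mammalian cytotoxicity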", "assay_type": "functional"}, "[22]": {"target": "T1, Endoribonuclease toxin MazF (Escherichia coli K-12, UniProt P0AE70)", "T1 sequence (P0AE70 whole entry)": "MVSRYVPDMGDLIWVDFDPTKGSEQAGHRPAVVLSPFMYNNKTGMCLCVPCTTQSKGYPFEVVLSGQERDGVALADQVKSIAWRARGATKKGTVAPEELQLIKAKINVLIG", "assay": "MazF toxin RNase activators, dose response, biochemical, fluorescence, single-stranded RNA substrate, uHTS hits (AID 588481)", "assay_type": "functional"}, "[23]": {"target": "T1, Endoribonuclease toxin MazF", "assay": "fluorescent RNA oligo signal without MazF, dose response, counter-screen for MazEF activator project, biochemical, fluorescence, single-stranded RNase substrate (AID 588502)", "assay_type": "functional"}, "[24]": {"assay": "HepG2 cell cytotoxicity, dose response, cytotoxicity control, ATP luminescence, cherry-pick, activator set 2 (AID 1053143)", "assay_type": "functional, cell-based"}, "Major prion protein": {"target": "Major prion protein (Homo sapiens, UniProt P04156)", "assay_type": "functional, cell-based"}, "[25]": {"assay": "human group III sPLA2 inhibitors, dose response, biochemical, QFRET, IC50 (AID 743457);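 further: green fluorescence rise as the enzyme cleaves BODIPY PC-A2 in liposomes; potency for inhibition of the enzyme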"}, "[26]": {"target": "Disintegrin and metalloproteinase domain-containing protein 17 (Homo sapiens, UniProt P78536)", "assay": "exosite inhibitors of ADAM17, dose response, biochemical (AID 743260)"}}, "note": "Calls of active or inactive are those of the source.", "data": [{"smiles": "CCN(CC)S(=O)(=O)c1ccc(NC(=O)Nc2cccc(C(F)(F)F)c2)cc1", "values": [{"measurement": "EC50", "setting": "[1]", "value": "> 120 µM (not active)"}, {"measurement": "EC50", "setting": "HEK293 [2]", "value": "> 20 µM (inactive)"}, {"measurement": "IC50", "setting": "HEK293 [3]", "value": "3.14 µM (active)"}, {"measurement": "EC50", "setting": "[4]", "value": "14.9 µM (active)"}, {"measurement": "EC50", "setting": "[5]", "value": "11.1 µM (active)"}, {"measurement": "IC50", "setting": "HEK293 [6]", "value": "8.73 µM (active)"}, {"measurement": "IC50", "setting": "HEK293 [7]", "value": "4.48 µM (inactive)"}, {"measurement": "EC50", "setting": "[8]", "value": "1.67 µM (active)"}, {"measurement": "EC50", "setting": "[9]", "value": "4.56 µM (active)"}, {"measurement": "EC50", "setting": "[10]", "value": "> 60 µM (not active)"}, {"measurement": "EC50", "setting": "[11]", "value": "6.35 µM (active)"}, {"measurement": "AC50", "setting": "[12]", "value": "2.13 µM (active)"}, {"measurement": "AC50", "setting": "INS1", "value": "4.6 µM (active)"}, {"measurement": "AC50", "setting": "[13]", "value": "5.6 µM (active)"}, {"measurement": "AC50", "setting": "[14]", "value": "27.6 µM (active)"}, {"measurement": "AC50", "setting": "[15]", "value": "10.8 µM (active)"}, {"measurement": "IC50", "setting": "[16]", "value": "6.94 µM (active)"}, {"measurement": "AC50", "setting": "[17]", "value": "9.67 µM (active)"}, {"measurement": "AC50", "setting": "[18]", "value": "13.6 µM (active)"}, {"measurement": "AC50", "setting": "[19]", "value": "10.3 µM (active)"}, {"measurement": "AC50", "setting": "[20]", "value": "9.71 µM (active)"}, {"measurement": "AC50", "setting": "[21]", "value": "5.75 µM (active)"}]}, {"smiles": "Nc1c(C(=O)c2ccccc2)sc2nsc(SCCN3CCOCC3)c12", "values": [{"measurement": "EC50", "setting": "[22]", "value": "> 99 µM (inactive)"}, {"measurement": "EC50", "setting": "[23]", "value": "> 99 µM (inactive)"}, {"measurement": "AC50", "setting": "[24]", "value": "51.6 µM (active)"}]}, {"smiles": "Cc1noc(C)c1C(=O)Nc1nc2ccc(F)cc2s1", "values": [{"measurement": "AC50", "setting": "[24]", "value": "> 52 µM (inactive)"}]}, {"smiles": "Brc1cc(Br)c2nc3c(cc2c1)CCC3", "values": [{"measurement": "IC50", "setting": "Major prion protein", "value": "5.89 µM (active)"}, {"measurement": "IC50", "setting": "cells", "value": "> 138 µM (inactive)"}]}, {"smiles": "CCn1c(S)nnc1-c1csc(C(C)C)c1", "values": [{"measurement": "IC50", "setting": "[25]", "value": "> 122 µM (inactive)"}]}, {"smiles": "COc1ccc(-c2n[nH]c(=S)n2-c2ccc(Br)cc2)cc1OC", "values": [{"measurement": "IC50", "setting": "[26]", "value": "41.6 µM (inactive)"}]}]}
